In data set [1] the test system is cortical and hippocampal cell culture. In words: Protection against NMDA-induced cell death. Type of data set: cell-based, rat. The conditions noted are these: for Neuroprotective potency against 200 μM of NMDA vs MK801: 100 μM agonist.
A further data set has as its system tau protein. In words: tau-1 immunoreactivity in primary cell cultures (western blot). The following applies: 1–100 μM, cortical and hippocampal cell cultures. Type of data set: cell-based, rat. The method, then: Primary cell cultures were grown as described in EXAMPLE 38. Cell supernatants were removed and the cells were washed once in medium prior to the addition of cold phosphate buffre saline ph=7.4 (PBS) solution containing 0.2 mM EDTA. Cells were scraped using a rubber policeman, transferred to Eppendorf tubes, and centrifuged at 4° C. Cell pellets were resuspended in lysis buffer (EDTA 5 mM, Tris 50 mM, Triton 1%, NaCl 150 mM) containing protease inhibitors (5 units/ml apronitin, […] and 0.1 mM PMSF, Sigma) and subjected to centrifugation at 4° C. Supernatants were transferred into Eppendorf tubes and kept at −20° C. till analyzed. The extent of tau-1 immunoreactivity (an antibody that recognizes a non-phosphorylated tau at Ser^199) was determined by western blots.
For orientation: In western blotting, separated proteins are transferred to a membrane and probed.

The subject of another data set is naive rats. As to the kind of experiment: Social memory (olfactory recognition) in naive rats. Type of data set: in vivo, Wistar rats. The following applies: 0.5, 1 and 5 mg/kg, p.o. How it is done: 12 Male Wistar rats, 400–530 gr (4–5 months old) were used. Rats were housed individually 14 days before testing. Juvenile Wistar rats 40–50 gr (at arrival) were kept in groups of 6 and served as social stimuli for the adult rats. Animals were kept at 21° C.±1, with an inverse light-dark cycle (light on from 2:00 P.M. to 2:00 A.M.). The sessions were conducted 7 hr into the dark part of the light/dark cycle, under red illumination.
Adult rats were placed in a dim illumination room 1.5 h before the beginning of the social test. All juveniles were isolated in cages for 30 min prior to the beginning of the experiment. At the beginning of testing, an unfamiliar juvenile rat was placed in the home cage of an adult rat for 5 min. The time spent by the adult rat in investigating the juvenile rat was recorded. The adult rat was then immediately (1–2 min) treated with vehicle or test compound. Two hours later, the same juvenile was presented to the same adult rat for another 5 min period, a time when normally the stimulus juvenile is no longer identified (i.e., the adult rat investigates the juvenile for the same amount of time as during the first presentation). […]
Time spent in social investigation of stimulus juvenile rat was measured (in sec) and then expressed for each animal as the ratio of the second exposure to the first exposure (Ratio of Investigation Duration (RID)). […]

The nature of a further data set: in vivo. The conditions noted are these: mouse.
In data set [2] the test system is Opiods/Opiate, Non-Selective. In words: Opiate non-selective binding. The following applies: at 10^−4 M.
Data set [3] can be described thus: Chronic oral toxicity up to 13 weeks, dog.
Another data set deals with cyclin D1. As to the kind of experiment: Cyclin D1 expression in rat hippocampal neurons. Format: cell-based. The following applies: against Aβ (5 μM)-induced decrease. How it is done:
This study was performed in rat hippocampal primary cell cultures using the methods described by Garrido J L et al. (FASEB J 2002; 16:1982).

The nature of data set [4]: pKa and free-base fraction of AF267B. The following applies: pH=7.35 of CSF, calculated from pKa.
Protocol: (§2) This calculation was based on the brain weight (2 gr) vs. total plasma volume (14 ml).
For data set [5] the following is noted: rat, in vivo, po.
Protocol: as §2
Another data set deals with CYP2C19 (Homo sapiens, UniProt P33261). In words: Cytochrome P450 inhibition, CYP2C19. The conditions noted are these: up to 10 μM. Type of data set: in vitro ADME. How it is done:
(§1) Cytochrome P450 activity can be an indicator for potential drug-drug interactions. AF292 was evaluated in a microtiter plate assay for P450 inhibition.

Data set [6] has as its system Isolated Guinea Pig Right Atrium. As to the kind of experiment: Isolated guinea pig right atrium. How it is done: • 1. Astemizole (human ether-a-go-go related gene (HERG) Channel) Binding Assay. […] Isolated Guinea Pig Right Atrium (atrial fibrillation). […] Effects of AF292 (dose 5 mg/kg orally) on cardiac electrophysiological, cardio-haemodynamic in instrumented, awake dogs. Healthy trained and chronically instrumented female Beagle dogs of varying age and ranging in body weight from 9.4 to 12 kg, were used for recording of the cardiovascular parameters: heart rate, diastolic and systolic blood pressure, pressure rate product, LV dp/dt max, LV dp/dt max/pd, LV dp/dt min, cardiac output, stroke volume, systemic vascular resistance and the ECG parameters (PQ-, QRS-, QT-, QTcBazett-(QTcB), QTcFridericia-(QTcF) and QTcVan de Water-(QTcVdW) interval duration and QT-dispersion. During the last 18 hours prior to the experiments, the dogs had no access to food. Water was available ad libitum. At the beginning of each experiment, control values of the various parameters were recorded for at least 30 min. Thereafter, 5 mg/kg of AF292 (n=4) or the corresponding volume of the solvent (n=4) was administered orally by gavage. The various haemodynamic parameters were recorded continuously for 4 hours thereafter.

The target in the next data set is CPY2D6 (Homo sapiens, UniProt P10635). In words: Cytochrome P450 inhibition, CYP2D6. The following applies: up to 10 μM. Type of data set: in vitro ADME. How it is done:
as §1

The subject of data set [7] is adenosine, adrenergic, angiotensin, BZD, bradykinin, CCK, dopamine, opiate, serotonin and other receptors, ion channels, NE transporter. As to the kind of experiment: Binding panel of other receptors, channels and transporter (AF292). The conditions noted are these: 10 μm.

Where two headings read alike, the source gives them in different places.

Sequence of CPY2D6 (P10635 whole entry): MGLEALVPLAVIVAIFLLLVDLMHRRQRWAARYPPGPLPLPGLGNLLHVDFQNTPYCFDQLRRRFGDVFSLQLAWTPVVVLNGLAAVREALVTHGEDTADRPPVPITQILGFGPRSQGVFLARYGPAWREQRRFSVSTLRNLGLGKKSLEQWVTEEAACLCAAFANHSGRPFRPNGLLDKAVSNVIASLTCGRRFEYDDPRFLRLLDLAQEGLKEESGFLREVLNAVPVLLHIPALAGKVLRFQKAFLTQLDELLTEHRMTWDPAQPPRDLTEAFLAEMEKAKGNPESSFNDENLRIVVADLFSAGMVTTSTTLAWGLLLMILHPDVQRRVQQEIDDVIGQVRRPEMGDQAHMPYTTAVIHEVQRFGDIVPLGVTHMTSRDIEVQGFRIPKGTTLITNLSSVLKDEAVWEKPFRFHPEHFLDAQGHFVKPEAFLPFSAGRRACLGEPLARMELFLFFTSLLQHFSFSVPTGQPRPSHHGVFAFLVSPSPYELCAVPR
Sequence of CYP2C19 (P33261 whole entry): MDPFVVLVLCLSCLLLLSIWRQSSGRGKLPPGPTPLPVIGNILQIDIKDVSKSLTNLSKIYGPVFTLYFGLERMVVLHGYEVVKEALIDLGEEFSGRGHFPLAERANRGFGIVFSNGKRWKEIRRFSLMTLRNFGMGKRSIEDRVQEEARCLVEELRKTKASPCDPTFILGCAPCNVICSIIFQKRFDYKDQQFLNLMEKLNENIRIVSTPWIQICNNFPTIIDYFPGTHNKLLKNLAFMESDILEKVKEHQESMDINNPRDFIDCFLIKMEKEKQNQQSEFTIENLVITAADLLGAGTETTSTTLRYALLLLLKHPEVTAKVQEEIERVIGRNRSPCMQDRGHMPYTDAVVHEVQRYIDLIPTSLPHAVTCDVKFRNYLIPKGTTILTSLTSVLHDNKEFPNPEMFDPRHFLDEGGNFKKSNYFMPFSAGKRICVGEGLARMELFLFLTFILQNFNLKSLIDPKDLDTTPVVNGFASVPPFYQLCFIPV
Protocol for in vivo: as §2

For `CC1=NCC2(CCN(C)CC2)S1` [AF150(S), 2,8-Dimethyl-1-thia-3,8-diaza-spiro[4.5]dec-2-ene], in [1], the “Prevention of NMDA-induced cell death” value was “effective in prevention of cell death” and the “Neuroprotective potency against 200 μM of NMDA vs MK801” value is given as “slightly less”. Moreover, in the data set on tau protein, the tau-1 immunoreactivity entry is listed as “effective in elevating tau immunoreactivity”. Besides, the “Investigation time of the same juvenile (RID)” value in the data set with naive rats is recorded as “decreased the investigation time”. Moreover, the Tmax (in general, the time at which the peak concentration occurs) in the data set “in vivo” lay in the range of 1 to 10 min.
On to `CC[C@@H]1SC2(CCN(C)CC2)NC1=O` [AF267B, (S)-2-ethyl-8-methyl-1-thia-4,8-diaza-spiro[4.5]decan-3-one], for which, in [1], the “Prevention of NMDA-induced cell death” value is “effective in prevention of cell death” and the “Neuroprotective potency against 200 μM of NMDA vs MK801” value is given as “slightly less”. The tau-1 immunoreactivity result in the data set with tau protein was “effective in elevating tau immunoreactivity”. For the same compound, in data set [2], the % inhibition (as a rule, how much of the control response was suppressed) is 52.5%. Moreover, in [3] (beagle, dog, in vivo, po), the NOAEL (in general, the highest dose or exposure tested at which no adverse effect was seen) is 6 to 9 mg/kg/day. Further, the “Dose at which effects are seen” value in data set [3] (dog) was over 9 mg/kg. Further, the ECG changes result in data set [3] (up to 13 weeks oral) is listed as “no changes in the ECG”. Besides, the “cyclin D1, increase vs. control” value in the data set on cyclin D1 was found to be 50%. Also, the “% of compound in free base form” value in data set [4] was 26.2%. In addition, in the data set on naive rats, the “Investigation time of the same juvenile (RID)” value is recorded as “decreased the investigation time”. The “% of the compound found in the brain (Cmax brain/Cmax plasma)” value in data set [5] (female) is listed as 16%. In addition, in [5] (male), the “% of the compound found in the brain (Cmax brain/Cmax plasma)” value came to 25%. Moreover, in “in vivo”, the mean residence time (MRT) (commonly a mean duration of stay, worked out from the concentration-time curve) was 128 min and the Tmax lay within 20 to 30 min.
Consider `CC[C@@H]1SC2(CCNCC2)NC1=O` [AF292, (S)-2-Ethyl-1-thia-4,8-diaza-spiro[4.5]decan-3-one], for which the “Inhibition of CYP2C19” value on CYP2C19 was “did not induce significant inhibition”. Moreover, in data set [6], the Contractile force entry is “no significant effect on contractile force” and the Contractile rate entry is on record as “tended to slightly reduce the contractile rate”. Further, on CPY2D6, the “Inhibition of CPY2D6” value is recorded as “did not induce significant inhibition”. Moreover, in data set [7], the Binding to panel entry is “no binding at all”.

Values taken from patent US7049321B2, “Methods and pharmaceutical compositions for treatment of central and peripheral nervous system disorders and compounds useful therefor” (Israel Institute for Biological Research, priority 2002, dated 2006).
